Assay results as given in US11713305B2, “Zinc sensors for in vivo imaging of beta-cell function by MRI” (The Board of Regents of the University of Texas System, priority 2017, dated 2023).

Experiments:
HSA = molecular target: T1, HSA (Homo sapiens, UniProt P02768); test: HSA dissociation constant by fluorescence competition with dansylglycine; assay type: binding; conditions: one site competition fitting with dansylglycine; in presence of Zn^2+; read-out: KD(GdLZnHSA)
T1 construct: purchased Sigma-Aldrich
Description: The procedures reported by Esqueda et al were followed (2009). A solution containing 5 μM of dansylglycine (or warfarin), 5 μM HSA, 400 μM GdL plus one equivalent of Zn^2+ was prepared in TRIS buffer. Aliquots of this solution were 2-fold diluted serially ten times by addition of a solution which contained the same concentrations of dansylglycine (warfarin) and HSA but no agent. The fluorescence of 100 μL aliquots was measured in triplicate in 96 well plates. In a similar manner solutions containing agent, HSA but no dansylglycine (warfarin), were also included. Four 100 μL aliquots of the solution containing no agent (maximum fluorescent intensity) were also measured in the same 96 well plate, along with four 100 μL aliquots of HSA in buffer.
The excitation and emission wavelengths used for the dansylglycine: 360 and 465 nm, respectively. The excitation and emission wavelengths used for warfarin: 320 and 380 nm, respectively.

[1] = 17O NMR of Gd complexes (water exchange, SBM fitting); assay type: physicochemical; design: A/ℏ: unit not given here; conditions: for hyperfine coupling constant (AO/ℏ): 17O NMR fit, underlined values fixed during fitting; for water exchange rate kex^310 / ΔH‡ / ER / τRO^298 / A/ℏ / EV / Δ^2 / τV^298: 17O NMR; for water exchange rate kex^310 / ΔH‡: 9.4 T; for water exchange rate kex^310: 310 K; for ΔH‡ / ER / τRO^298 / A/ℏ / EV / Δ^2 / τV^298: best-fit; for ΔH‡: [Gd^3+]=25 mM; for ER: activation energy of rotational correlation time; for τRO^298: rotational correlation time; for A/ℏ: scalar coupling constant; for EV / Δ^2 / τV^298: sometimes fixed; for water exchange rate kex: slowest exchange rates, in 1/s; for faster water exchange rates: compared with GdL1 and GdL4; for empirical constant describing the outer sphere contribution to the 17O chemical shift, Cos: fitted
Description: Given that the rate of water exchange (kex) in these complexes is likely the limiting factor in determining the magnitude of r1 increase when the GdL-Zn complexes bind to HSA, further temperature dependent ^17O NMR studies were performed to evaluate the water exchange rates. A simultaneous analysis of ^17O reduced T1, T2, and chemical shift (Δωr) data were analyzed (Powell et al., 1996; Gonzalez et al., 1994; Martins et al., 2013; Martins et al., 2015) to estimate the q values, kex, and hyperfine coupling constants for GdL1-5.
^17O NMR experiments were performed at 9.4 T on a Bruker AVANCE III NMR spectrometer. The temperature was regulated by air flow controlled by a Bruker VT unit. The samples ([Gd^3+]=25 mM; [Dy^3+]=1 mM) were prepared in ^17O enriched water (10%) with the pH being maintained at 7.4 with 100 mM Tris buffer. The sample was loaded into a 18 μL spherical bulb (Wilmad-Lab Glass, Vineland, NJ) and placed inside a 5 mm NMR tube containing 400 μL of water to eliminate any susceptibility effects. Longitudinal relaxation rates (1/T1) were obtained by the inversion recovery method and transverse relaxation rates (1/T2) were obtained by the Carr-Purcell—Meiboom—Gill spin echo technique. The acidified water (pH=3.0) containing 10% enriched ^17O water was used as a reference for the measurements. For the DyL4 complexes (no HSA and with HSA+Zinc), acidified water solutions and 1 mM LaL4+3 mM HSA with zinc (1:1) were used as the corresponding references. The corresponding fittings were performed with the Scientist 3.0 software (Micromath®).
^17O NMR data have been analyzed within the framework of Solomon-Bloembergen-Morgan theory.
From the measured ^17O NMR relaxation rates and angular frequencies of the paramagnetic solutions, 1/T1, 1/T2 and ω, and of the acidified water reference, a1/T1A, 1/T2A and ωA, one can calculate the reduced relaxation rates and chemical shifts, 1/7′2, and Δωr, which may be written in Equations (A1)-(A3), where, 1/T1m, 1/T2m, is the relaxation rate of the bound water and Awn, is the chemical shift difference between bound and bulk water molecules, τm is the mean residence time or the inverse of the water exchange rate kex and Pm is the mole fraction of the bound water (Swift and Connick, 1962; Zimmerman and Brittin, 1957).
The outer sphere contributions to the ^17O relaxation rates 1/T1OS and 1/T2OS are being neglected according to previous studies (Micskei et al., 1993). Therefore, Equations (A1-A2) can be further simplified to Equations (A4) and (A5): […]
The exchange rate is supposed to obey the Eyring Equation. In Equation (A6) ΔS^‡ and ΔH^‡ are the entropy and enthalpy of activation for the water exchange process, and kex^298 is the exchange rate at 298.15 K.
In the transverse relaxation, the scalar contribution, 1/T2s, is the most relevant [Equation (A7)]. 1/τsl is the sum of the exchange rate constant and the electron spin relaxation rate [Equation (A8)].
The ^17O longitudinal relaxation rates in Gd^3+ solutions are the sum of the contributions of the dipole-dipole (dd) and quadrupolar (q) mechanisms as expressed by Equations (A11-A13) for non-extreme narrowing conditions, where γS is the electron and γ1 is the nuclear gyromagnetic ratio (γS=1.76×10^11 rad s^−1 T^−1, γ1=˜3.626×107 rad s^−1 T^−1), rGdO is the effective distance between the electron charge and the ^17O nucleus, I is the nuclear spin (5/2 for ^17O), x is the quadrupolar coupling constant and η is an asymmetry parameter:
In Equation (A3) the chemical shift of the bound water molecule, Δωm, depends on the hyperfine interaction between the Gd^3+ electron spin and the ^17O nucleus and is directly proportional to the scalar coupling constant, A/h, as expressed in Equation (A12) (Brittain and Desreux, 1984).
The isotopic Landé g factor is equal to 2.0 for the Gd^3+, B represents the magnetic field, and kB is the Boltzmann constant. […]

T1 sequence (P02768 25-609): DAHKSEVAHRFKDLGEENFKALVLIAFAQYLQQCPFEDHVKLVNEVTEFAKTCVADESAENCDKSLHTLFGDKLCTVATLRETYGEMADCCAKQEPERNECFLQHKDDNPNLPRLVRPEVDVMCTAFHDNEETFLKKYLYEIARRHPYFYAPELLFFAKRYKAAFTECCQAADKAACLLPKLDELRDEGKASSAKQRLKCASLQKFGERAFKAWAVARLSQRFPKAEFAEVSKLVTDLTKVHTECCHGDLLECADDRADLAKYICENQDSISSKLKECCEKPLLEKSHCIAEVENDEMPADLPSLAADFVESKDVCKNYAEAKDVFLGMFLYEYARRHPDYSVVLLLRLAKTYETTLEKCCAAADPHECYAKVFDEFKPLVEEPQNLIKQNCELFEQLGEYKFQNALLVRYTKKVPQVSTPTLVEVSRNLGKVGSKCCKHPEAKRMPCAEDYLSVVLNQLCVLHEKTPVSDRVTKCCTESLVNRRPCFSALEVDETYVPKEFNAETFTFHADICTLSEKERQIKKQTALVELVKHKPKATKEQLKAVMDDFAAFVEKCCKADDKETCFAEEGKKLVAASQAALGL

Compound	Kd (HSA) [µM]	hyperfine coupling constant (AO/ℏ) [1]	ΔH‡ [1] [kcal/mol]	ER [1] [kcal/mol]	τRO^298 [1] [ps]	A/ℏ [1]	EV [1] [kcal/mol]	Δ^2 [1]	τV^298 [1] [ps]	empirical constant describing the outer sphere contribution to the 17O chemical shift, Cos [1]	water exchange rate kex^310 [1]	water exchange rate kex [1]	faster water exchange rates [1] [fold]
O=C(O)CN1CCN(CC(=O)O)CCN(CC(=O)NCCN(CCc2ccccn2)Cc2ccccn2)CCN(CC(=O)O)CC1 [GdL4]	42 ± 1	−4.0 ± 0.2 ×10^6 rad/s	3.61 ± 0.359	4.16 ± 0.048	350 ± 12	−4.0 ± 0.4	0.239	0.16 10^20 s^−2	11	–	3.0 ± 0.1 ×10^6 s^−1	~3 ×106 5-1	–
O=C(O)CN1CCN(CCC(=O)NCCN(CCc2ccccn2)Cc2ccccn2)CCN(CC(=O)O)CCN(CC(=O)O)CC1 [GdL5]	43 ± 1	−3.9 ± 0.3 ×10^6 rad/s	10.9 ± 0.311	3.59	305 ± 10	−3.9 ± 0.2	0.239	0.67 ± 0.2 10^20 s^−2	14 ± 0.2	–	100 ± 1 ×10^6 s^−1	–	~30
O=C(O)CCN1CCN(CC(=O)O)CCN(CC(=O)NCCN(Cc2ccccn2)Cc2ccccn2)CCN(CC(=O)O)CC1 [GdL3]	37 ± 1	−3.7 ×10^6 rad/s	11.2 ± 0.239	4.11 ± 0.024	320	−3.7	0.263	0.13 10^20 s^−2	7.1	0.1	90 ± 0.2 ×10^6 s^−1	–	~30

Now from value to compound, other results behind:

Kd (HSA) [µM]	hyperfine coupling constant (AO/ℏ) [1]	ΔH‡ [1] [kcal/mol]	ER [1] [kcal/mol]	τRO^298 [1] [ps]	A/ℏ [1]	EV [1] [kcal/mol]	Δ^2 [1]	τV^298 [1] [ps]	empirical constant describing the outer sphere contribution to the 17O chemical shift, Cos [1]	Compound	water exchange rate kex^310 [1]	water exchange rate kex [1]	faster water exchange rates [1] [fold]
36 ± 1	−4.0 ± 0.2 ×10^6 rad/s	10.6 ± 0.239	4.95 ± 0.048	280 ± 11	−4.0 ± 0.1	0.263 ± 0.024	0.10 ± 0.01 10^20 s^−2	4.6 ± 0.1	–	O=C(O)CN1CCN(CC(=O)O)CCN(CC(=O)NCCN(Cc2ccccn2)Cc2ccccn2)CCN(CC(=O)O)CC1 [GdL1]	2.9 ± 0.1 ×10^6 s^−1	~3 ×106 5-1	–
37 ± 1	−3.7 ± 0.2 ×10^6 rad/s	10.9 ± 0.263	4.09 ± 0.048	320 ± 11	−3.7 ± 0.2	0.263 ± 0.0024	0.13 ± 0.01 10^20 s^−2	7.1 ± 0.1	0.1	O=C(O)CN1CCN(CCC(=O)NCCN(Cc2ccccn2)Cc2ccccn2)CCN(CC(=O)O)CCN(CC(=O)O)CC1 [GdL2]	100 ± 1 ×10^6 s^−1	–	~30
